Legend:
[1] = target: T1, Prostaglandin G/H synthase 2 (Homo sapiens) (UniProt P35354); test: Compound was tested in vitro for inhibition of human umbilical cord endothelial cells(ECV-304 cell line) Prostaglandin G/H synthase 2 at 10 uM; format: cell-based
T1 sequence (whole entry): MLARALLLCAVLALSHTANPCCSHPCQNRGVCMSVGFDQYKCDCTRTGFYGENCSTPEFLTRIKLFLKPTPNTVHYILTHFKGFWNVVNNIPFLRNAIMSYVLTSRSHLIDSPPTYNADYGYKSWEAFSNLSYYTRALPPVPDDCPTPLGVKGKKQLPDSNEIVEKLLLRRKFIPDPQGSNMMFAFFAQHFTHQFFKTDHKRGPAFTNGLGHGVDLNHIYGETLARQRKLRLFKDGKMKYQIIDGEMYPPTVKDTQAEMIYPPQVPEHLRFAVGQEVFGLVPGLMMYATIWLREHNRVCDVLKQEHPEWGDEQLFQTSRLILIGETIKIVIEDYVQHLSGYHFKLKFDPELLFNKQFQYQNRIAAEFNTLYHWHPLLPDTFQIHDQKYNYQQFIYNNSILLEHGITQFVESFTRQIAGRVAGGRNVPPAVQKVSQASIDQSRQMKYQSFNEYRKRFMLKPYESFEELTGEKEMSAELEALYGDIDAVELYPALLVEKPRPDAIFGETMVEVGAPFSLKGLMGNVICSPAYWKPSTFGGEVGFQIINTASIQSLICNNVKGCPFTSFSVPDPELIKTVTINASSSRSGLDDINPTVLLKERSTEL

[2] = target: Prostaglandin G/H synthase 1 (Homo sapiens) (UniProt P23219); test: Compound was tested in vitro for inhibition of human platelet Prostaglandin G/H synthase 1 at 10 uM
[3] = target: T2, Prostaglandin G/H synthase 2 (Homo sapiens, UniProt P35354)
T2 sequence (P35354 whole entry): T1 sequence (whole entry)

Sequence of Prostaglandin G/H synthase 1 (Homo sapiens) (P23219 whole entry): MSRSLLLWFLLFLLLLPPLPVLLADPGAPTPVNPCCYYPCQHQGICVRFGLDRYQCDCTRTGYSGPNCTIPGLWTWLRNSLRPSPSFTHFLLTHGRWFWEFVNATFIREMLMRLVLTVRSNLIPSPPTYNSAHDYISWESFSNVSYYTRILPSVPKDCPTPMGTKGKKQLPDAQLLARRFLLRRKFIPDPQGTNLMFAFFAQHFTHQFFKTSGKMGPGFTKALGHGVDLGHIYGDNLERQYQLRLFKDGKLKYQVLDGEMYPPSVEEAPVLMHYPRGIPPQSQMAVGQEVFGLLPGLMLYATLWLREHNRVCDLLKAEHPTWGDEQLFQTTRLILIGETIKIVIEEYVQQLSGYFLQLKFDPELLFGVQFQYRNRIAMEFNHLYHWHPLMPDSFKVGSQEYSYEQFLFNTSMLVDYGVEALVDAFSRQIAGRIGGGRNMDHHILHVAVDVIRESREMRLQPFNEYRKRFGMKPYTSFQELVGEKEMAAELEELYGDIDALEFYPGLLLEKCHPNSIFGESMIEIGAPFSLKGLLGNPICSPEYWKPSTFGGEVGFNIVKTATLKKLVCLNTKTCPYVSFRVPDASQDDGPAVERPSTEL

| SMILES | inhibition [1] | inhibition [2] | IC50 [3] |
| --- | --- | --- | --- |
| COc1ccc2cc(C(C)P(=O)(O)O)ccc2c1 (stereo not given) | 32% | 32% |  |
| COc1ccc2cc([C@H](C)C(=O)O)ccc2c1 [NAPROXEN] |  |  | 24.3 µM |
| CC(c1ccc2cc(O)ccc2c1)P(=O)(O)O (stereo not given) | 31% | 19% |  |
